Reference: US9908880B2, “Substituted imidazoquinolines” (4SC AG, priority 2008, dated 2018)

What was measured:
[1] = tested on: Renca LacZ tumor cell lung metastases; experiment: Renca lung metastasis model
Method: (§1) In particular, female Balb/c mice (n=10) were treated for 4 consecutive days starting day 1 or day 8 after Renca LacZ tumor cell injection, respectively. The compounds were applied in 20% PEG, ODNs in 0.9% NaCl as indicated. Lungs were excised 25 days after tumor cell injection.
as §1, with “compounds (small molecules (SMOLs))” for “compounds”
Abstract 3552, Proc Am Cancer Res 48, 2007.
In particular, female Balb/c mice (n=10) were treated for 4 consecutive days starting day 1 or day 8 after Renca LacZ tumor cell injection, respectively. The SMOLs were applied in 20% PEG, the oligonucleotides in 0.9% NaCl as indicated. Lungs were excised 25 days after tumor cell injection (see FIG. 4A). Further, female Balb/c mice (n=5) were treated for 4 consecutive days as indicated. The SMOLs were applied in 20% PEG, oligonucleotides in 0.9% NaCl. At day 4 of treatment, blood was collected via orbital plexus and spleens were excised. Subsequently, mRNA was isolated for expression analysis via qPCR. Data were normalized to vehicle control (mean set to 1). Statistical evaluation was performed via Mann-Whitney test (see FIG. 4B). […]

[2] = tested on: superficial basal cell carcinomas; conditions: marketed 5% cream (Aldara), topical; cited from earlier work
PCIR-1 cells = experiment: Cytokine mRNA induction in PCIR-1 human cancer cell line (TaqMan PCR); format: cell-based; conditions: for induction of IP-10: after 15 h
Method: Expression of IL8 mRNA was measured with TaqMan PCR after 16 hours incubation of cells with H2006, LPS or Resiquimod alone and in combination with cloroquine.
Cellular assays using a human cancer cell line (PCIR-1) or human PBMC fractions to test compounds for activating TLR7 are established.
Specificity for TLR7 and 9 was checked by adding chloroquine, which abrogates signaling through endosomal TLRs. The PCIR-1 system is suited for measuring the interferone-linked cytokine IP10 by a bead-based assay in the 384-well format.
TLR mRNA Expression in PCIR-1 (TaqMan PCR Analysis)
Also response to poly I-C double-stranded RNA (TLR 3 ago); 40-fold induction of IP-10 after 15 h) and MALP-2 (TLR 2/6 hetero-dimer ago, 100-fold induction of IP-10 after 15 h) is detected.
In contrast TLR4 signaling by LPS is not affected (FIG. 1).

CCc1nc2c(N)nc3ccccc3c2n1CCCCN(C(C)=O)C1CCOC1C (stereo not drawn) [Example III, 3-{acetyl[4-(4-amino-2-ethyl-1H-imidazo[4,5-c]quinolin-1-yl)butyl]amino}-2,5-anhydro-1,3,4-trideoxypentitol]
anti-metastatic effect (clearance of the lungs) ([1]; short treatment (d1-4), FIG. 5): strong anti-metastatic effect with virtually complete clearance of the lungs

CC(C)Cn1cnc2c(N)nc3ccccc3c21 [Imiquimod, imiquimod]
5 year clearance of superficial basal cell carcinomas [2]: approx 80%

CCN(CC)CCCC(C)Nc1ccnc2cc(Cl)ccc12 (stereo not drawn) [chloroquine]
signaling via TLR7 and TLR9 on addition of chloroquine (PCIR-1 cells; FIG. 1, IL8 mRNA after 16 hours): completely blocked

Nc1nc2c(sc(=O)n2[C@@H]2O[C@H](CO)[C@@H](O)[C@H]2O)c(=O)[nH]1 [isatoribine, 7-thia-8-oxoguanosine]
emergence of lung metastases ([1]; murine Renca lung metastasis model): virtually completely suppressed

MALP-2
induction of IP-10 (PCIR-1 cells): 100 fold

poly I-C
induction of IP-10 (PCIR-1 cells): 40 fold
